We go through two molecules from PMC9867241, “Antioxidant and Cytotoxic Activity of New Polyphenolic Derivatives of Quinazolin-4(3H)-one: Synthesis and In Vitro Activities Evaluation” (Pharmaceutics, 2022).

The nature of data set [1]: ABTS˙+ radical scavenging assay. The protocol: The stock solutions (1 mg/mL) of the tested compounds and the controls were obtained, by dissolving the substances in dimethyl sulfoxide (DMSO). Using Jasco V-530, an UV-VIS spectrophotometer (Jasco International Co., Ltd., Tokyo, Japan), we performed the colorimetric determinations in low-volume single-use 10 mm width cuvettes.
The assays were performed in triplicate and the results are presented as averages for each assay.

Data set [2] in a line: NO˙ radical scavenging assay (Griess reaction). The note with it: PBS pH 7.4, sodium nitroprusside. On the procedure: The scavenging of the NO˙ radical was performed by applying previously reported protocols. The in vitro protocol describes the decomposition of sodium nitroprusside in phosphate buffered saline (PBS) at pH = 7.4. The NO˙ radicals would be involved in a Griess reaction if they were not captured by the tested compounds. This reaction results from the formation of an azo dye, with maximum absorption at 546 nm. This azo dye is formed from sulfanilic acid and naphthyl ethylenediamine dichloride.

Data set [3] in a line: Ferric reducing antioxidant potential (FRAP) assay. Also on record: concentration or dose not given beside the values. The note with it: for FRAP, % of Activity of Trolox: relative to Trolox; for FRAP, % of Activity of Ascorbic Acid: relative to ascorbic acid. The protocol: In the ferric reducing antioxidant potential (FRAP) assay, in comparison with a blank sample prepared from DMSO mixed with FRAP reagent, the absorbance of the solutions was measured at λ = 593 nm. The compounds were tested according to a modified method proposed initially by Benzie and Strain [31]. Using Equation (4), we calculated the reducing antioxidant potential of 5a–d and 6a–d as a percentage of the activity of the reference compounds:(4) % of control activity=sample absorbance/reference absorbance×100
Ferrous ions resulting from the reduction of ferric ions in the presence of an antioxidant compound form a blue-colored complex (Fe^2+-TPTZ) at pH = 3.6 with tripyridyltriazine (2,4,6-tris(2-pyridyl)-s-triazine). The intensity of the blue complex formed is proportional to the number of ferrous ions. Compounds 5a, 5c and 5d expressed a good electron donation capacity.

Data set [4] in a line: Reducing power (RP) assay. The note with it: for RP, % of Activity of Trolox: relative to Trolox; for RP, % of Activity of Ascorbic Acid: relative to ascorbic acid. Also on record: concentration or dose not given beside the values. On the procedure:
Herein, the iron (III) is not free in the solution as it was in the FRAP assay and is complexed by cyanide ions. The evaluation of the reducing power (RP) was performed at a pH closer to neutral (pH = 6.6); this is different from the FRAP test, which is performed in an acidic environment. Against a blank sample, the absorbances were measured at λ = 700 nm. The followed protocol was based on the adaptation of previously reported protocols and was previously reported by our group. Using Equation (4), we calculated the reducing power of the 5a–d and 6a–d compounds as a percentage of the reference compounds activity.
The evaluated compounds can reduce ferricyanide to ferrocyanide, in the presence of ferric ions, resulting in the Perl’s Prussian which gives blue. The higher the percentage of reducing power, the higher was the absorbance that was measured due to a higher amount of colored complex resulting from the reaction.

Data set [5] is described as follows: Cu^2+ chelation assay (murexide competition). The text has this:
With murexide as a chromophoric chelator, we performed the protocol followed for the evaluation of Cu^2+ chelating activities of the compounds using an adaptation of the method presented by Cesari et al. and Wu et al.. Using Equation (6), we calculated the copper chelation capacities of the 5a–d and 6a–d compounds:(6) copper chelation (%)=(A485/A520)control−(A485/A520)sample/(A485/A520)control×100
The evaluation of the Cu^2+ chelation activity of compounds was made based on the competition for Cu^2+ with murexide. The chelating activity of compounds for the cupric ions found in the current assay is significant for the pyrogallol derivatives, being quite close to EDTA-Na2.

Data set [6] is described as follows: Molecular properties computed with SwissADME. The note with it: ratio of computed water solubilities. The text has this:
In order to obtain preliminary information regarding molecular properties which could influence the pharmacokinetics of the compounds, we obtained them using SwissADME [44]. The evaluated molecular properties were the topological polar surface area (TPSA), octanol–water partition coefficient expressed as Moriguchi’s LogP [46], water solubility and violations of the Lipinski’s rule of five.

Values after ≈ are worked out from the molar mass of the structure shown.

For `CCn1c(SCC(=O)NN=Cc2ccc(O)c(O)c2O)nc2ccccc2c1=O` [Compound 5c, 2-((3-Ethyl-4-oxo-3,4-dihydroquinazolin-2-yl)thio)-N’-(2,3,4-trihydroxybenzylidene)acetohydrazide], in data set [1], the midpoint of inhibition, the IC50, lay at 3.86 µM. In data set [1], the “IC50 (ABTS˙^+ scavenging)” value is listed as 1.60 µg/mL (≈ 3.86 µM). The “% of ABTS˙^+ Scavenging” value is given as 39.05% in data set [1] (0.83 µg/mL); 52.25% in data set [1] (1.67 µg/mL); 72.57% in data set [1] (3.33 µg/mL); “+ (+ represents more than 95%)” in data set [1] (4.99 µg/mL); “+ (+ represents more than 95%)” in data set [1] (6.66 µg/mL); “+ (+ represents more than 95%)” in data set [1] (9.99 µg/mL). The “% of ABTS˙^+ Scavenging” value in data set [1] (13.32 µg/mL) was “+ (+ represents more than 95%)”. Further, the “% of NO˙ Scavenged” value in data set [2] is 43.21%. Also, the “FRAP, % of Activity of Trolox” value in data set [3] came to 95.70%. Moreover, in data set [3], the “FRAP, % of Activity of Ascorbic Acid” value turned out to be 83.40%. For the same molecule, the “RP, % of Activity of Trolox” value in data set [4] is given as 72.75%. The “RP, % of Activity of Ascorbic Acid” value in data set [4] is 49.93%. For the same molecule, the “Cupric ions Chelation Capacity (%)” value in data set [5] (3.36 µg/mL) is 13.06%; in data set [5] (8.40 µg/mL) it was 23.23%; in data set [5] (16.80 µg/mL), 32.60%. Also, the “times more soluble in water than 6b” value in data set [6] was 24 times.

On to `CCCCn1c(SCC(=O)NN=C(C)c2ccc(O)cc2O)nc2ccccc2c1=O` [Compound 6d, 2-((3-butyl-4-oxo-3,4-dihydroquinazolin-2-yl)thio)-N’-(1-(2,4-dihydroxyphenyl)ethylidene)acetohydrazide], for which the midpoint of inhibition in data set [1], the IC50, lay at 11.7 µM. Also, the “IC50 (ABTS˙^+ scavenging)” value in data set [1] was determined as 5.17 µg/mL (≈ 11.7 µM). In addition, the “% of ABTS˙^+ Scavenging” value was found to be 29.08% in data set [1] (0.83 µg/mL); 33.32% in data set [1] (1.67 µg/mL); 40.37% in data set [1] (3.33 µg/mL); 50.24% in data set [1] (4.99 µg/mL); 57.59% in data set [1] (6.66 µg/mL); 75.41% in data set [1] (9.99 µg/mL). Also, in data set [1] (13.32 µg/mL), the “% of ABTS˙^+ Scavenging” value worked out at 85.79%. For the same molecule, in data set [2], the “% of NO˙ Scavenged” value was found to be 30.71%. Further, the “FRAP, % of Activity of Trolox” value in data set [3] is 27.95%. The “FRAP, % of Activity of Ascorbic Acid” value in data set [3] was found to be 24.36%. Further, the “RP, % of Activity of Trolox” value in data set [4] is listed as 24.53%. Further, the “RP, % of Activity of Ascorbic Acid” value in data set [4] came out at 16.84%. Besides, the results for the “Cupric ions Chelation Capacity (%)” value in data set [5] (3.36 µg/mL), in data set [5] (8.40 µg/mL) and in data set [5] (16.80 µg/mL) were 5.98%, 11.84% and 20.42%, respectively.
